# Results as given in patent US20230085307A1, “PYRIDAZINONE COMPOUND AND HERBICIDE” (NISSAN CHEMICAL CORPORATION, priority 2019, published 2023).
# Key:
# chickweed [1] = assay: Test Example 5: herbicidal effect by foliage application, plastic box (Table 20, symbol P); assay type: in vivo, common chickweed (Stellaria media); settings: foliage application, AAH 320 g/ha, three weeks after application
# Method in brief: (§1)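 Post-emergence foliar test in sterilized diluvial soil. Compound applied as water-diluted emulsion at a predetermined rate to 14-day-old plants; evaluation at three weeks.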
# Italian ryegrass = assay: Test Example 5: herbicidal effect by foliage application, plastic box (Table 20, symbol K); assay type: in vivo, Italian ryegrass (Lolium multiflorum); settings: foliage application, AAH 320 g/ha, three weeks after application
# Method in brief: as §1
# directly sowed rice = assay: Test Example 3: effect on crop by foliage application, Wagner pot (Table 18, symbol b); assay type: in vivo; settings: 320 g/ha
# Method in brief: (§2)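 Plants were sown in alluvial soil held under 0.1–0.5 cm standing water and grown 14 days in a greenhouse at 25–30 °C. An emulsifiable formulation, water-diluted to the set dose, was then sprayed onto the foliage, and effects were scored three weeks later using previously defined criteria.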
# green foxtail [2] = assay: Test Example 4: herbicidal effect by soil treatment (Table 19, symbol G); assay type: in vivo, green foxtail (Setaria viridis); settings: amount of applied herbicide 320 g/ha
# Method in brief: (§3)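 Emulsion of test compound, water-diluted to predetermined amount, sprayed on soil after sowing (seed depth ~1.5 cm, sterilized diluvial soil). Greenhouse, 25–30° C. Effect graded at three weeks post-spray.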
# velvetleaf [3] = assay: Test Example 4: herbicidal effect by soil treatment (Table 19, symbol M); assay type: in vivo, velvetleaf (Abutilon theophrasti); settings: amount of applied herbicide 320 g/ha
# Method in brief: as §3
# corn = assay: Test Example 4: effect on crop by soil treatment (Table 19, symbol c); assay type: in vivo; settings: amount of applied herbicide 320 g/ha
# From the text: (§4) [Test Example 4] Herbicidal Effect Test by Soil Treatment
# (§5) Sterilized diluvial soil was placed in a plastic box having a length of 21 cm, a width of 13 cm, and a depth of 7 cm. The seeds of each of southern crabgrass, green foxtail, barnyard grass, wild oat, blackgrass, Italian ryegrass, windgrass, velvetleaf, redroot pigweed, lambsquarters, chickweed, false cleavers, persian speedwell, corn, soybean, rice, wheat, beet, and rapeseed were sowed in a spot-like manner and covered with the soil having a thickness of about 1.5 cm. Subsequently, the emulsion agent of the compound of the present invention prepared according to Formulation Example 2 was diluted with water so as to achieve a predetermined herbicide amount, and the diluted emulsion agent was uniformly applied to the surface of the soil with a small-sized spray. The plastic box was placed in a greenhouse at 25° C. to 30° C. for growth of the plants. Three weeks after the herbicide application, the effect of the herbicide on each plant was evaluated according to the criteria of Test Example 1.
# Chinese sprangletop = assay: Test Example 3: herbicidal effect by foliage application, Wagner pot (Table 18, symbol D); assay type: in vivo, chinese sprangletop (Leptochloa chinensis); settings: 320 g/ha
# Method in brief: as §2
# barnyard grass = assay: Test Example 5: herbicidal effect by foliage application, plastic box (Table 20, symbol H); assay type: in vivo, barnyard grass (Echinochloa crus-galli); settings: foliage application, AAH 320 g/ha, three weeks after application
# Method in brief: as §1
# lambsquarters = assay: Test Example 5: herbicidal effect by foliage application, plastic box (Table 20, symbol O); assay type: in vivo, lambsquarters (Chenopodium album); settings: foliage application, AAH 320 g/ha, three weeks after application
# Method in brief: as §1
# persian speedwell = assay: Test Example 4: herbicidal effect by soil treatment (Table 19, symbol R); assay type: in vivo, Persian speedwell (Veronica persica); settings: amount of applied herbicide 320 g/ha
# Method in brief: as §3
# wild oat = assay: Test Example 5: herbicidal effect by foliage application, plastic box (Table 20, symbol I); assay type: in vivo, wild oat (Avena fatua); settings: foliage application, AAH 320 g/ha, three weeks after application
# Method in brief: as §1
# wheat = assay: Test Example 4: effect on crop by soil treatment (Table 19, symbol e); assay type: in vivo; settings: amount of applied herbicide 320 g/ha
# From the text: as §4, §5
# beet = assay: Test Example 4: effect on crop by soil treatment (Table 19, symbol f); assay type: in vivo; settings: amount of applied herbicide 320 g/ha
# From the text: as §4, §5
# green foxtail [4] = assay: Test Example 5: herbicidal effect by foliage application, plastic box (Table 20, symbol G); assay type: in vivo, green foxtail (Setaria viridis); settings: foliage application, AAH 320 g/ha, three weeks after application
# Method in brief: as §1
# southern crabgrass = assay: Test Example 5: herbicidal effect by foliage application, plastic box (Table 20, symbol F); assay type: in vivo, southern crabgrass (Digitaria ciliaris); settings: foliage application, AAH 320 g/ha, three weeks after application
# Method in brief: as §1
# velvetleaf [5] = assay: Test Example 5: herbicidal effect by foliage application, plastic box (Table 20, symbol M); assay type: in vivo, velvetleaf (Abutilon theophrasti); settings: foliage application, AAH 320 g/ha, three weeks after application
# Method in brief: as §1
# chickweed [6] = assay: Test Example 4: herbicidal effect by soil treatment (Table 19, symbol P); assay type: in vivo, common chickweed (Stellaria media); settings: amount of applied herbicide 320 g/ha
# Method in brief: as §3
# redroot pigweed [7] = assay: Test Example 5: herbicidal effect by foliage application, plastic box (Table 20, symbol N); assay type: in vivo, redroot pigweed (Amaranthus retroflexus); settings: foliage application, AAH 320 g/ha, three weeks after application
# Method in brief: as §1
# redroot pigweed [8] = assay: Test Example 4: herbicidal effect by soil treatment (Table 19, symbol N); assay type: in vivo, redroot pigweed (Amaranthus retroflexus); settings: amount of applied herbicide 320 g/ha
# Method in brief: as §3
compound,measurement,setting,value
"Cc1nn(C)c(=O)c(-c2c(-n3cc(Cl)cn3)sc3ccccc23)c1O [Compound No. 1-097, 5-hydroxy-2,6-dimethyl-4-(2-(4-chloro-1H-pyrazol-1-yl)benzo[b]thiophen-3-yl)pyridazin-3(2H)-one]","P: chickweed, herbicidal effect",chickweed [1],5 (Herbicidal rate of 90% or more (almost completely withered))
same,"K: Italian ryegrass, herbicidal effect",Italian ryegrass,2 (Herbicidal rate of 20% or more and less than 40%)
same,"effect on crop b (directly sowed rice), rating 0-5",directly sowed rice,0 (Herbicidal rate of 5% or less (almost no effect))
same,"herbicidal effect rating, G: green foxtail",green foxtail [2],0 (Herbicidal rate of 5% or less (almost no effect))
same,"herbicidal effect rating, M: velvetleaf",velvetleaf [3],1 (Herbicidal rate of 5% or more and less than 20%)
same,"effect rating on crop, c: corn",corn,0 (Herbicidal rate of 5% or less (almost no effect))
same,"herbicidal effect on D (Chinese sprangletop), rating 0-5",Chinese sprangletop,0 (Herbicidal rate of 5% or less (almost no effect))
same,"H: barnyard grass, herbicidal effect",barnyard grass,0 (Herbicidal rate of 5% or less (almost no effect))
same,"O: lambsquarters, herbicidal effect",lambsquarters,0 (Herbicidal rate of 5% or less (almost no effect))
same,melting point,,232 to 234 °C
same,"herbicidal effect rating, R: persian speedwell",persian speedwell,0 (Herbicidal rate of 5% or less (almost no effect))
same,"I: wild oat, herbicidal effect",wild oat,0 (Herbicidal rate of 5% or less (almost no effect))
same,"effect rating on crop, e: wheat",wheat,0 (Herbicidal rate of 5% or less (almost no effect))
same,"effect rating on crop, f: beet",beet,0 (Herbicidal rate of 5% or less (almost no effect))
same,"G: green foxtail, herbicidal effect",green foxtail [4],0 (Herbicidal rate of 5% or less (almost no effect))
same,"F: southern crabgrass, herbicidal effect",southern crabgrass,0 (Herbicidal rate of 5% or less (almost no effect))
same,"M: velvetleaf, herbicidal effect",velvetleaf [5],5 (Herbicidal rate of 90% or more (almost completely withered))
same,"herbicidal effect rating, P: chickweed",chickweed [6],0 (Herbicidal rate of 5% or less (almost no effect))
same,"N: redroot pigweed, herbicidal effect",redroot pigweed [7],3 (Herbicidal rate of 40% or more and less than 70%)
same,"herbicidal effect rating, N: redroot pigweed",redroot pigweed [8],1 (Herbicidal rate of 5% or more and less than 20%)
